Measurements as given in patent US20250210194A1, “METHODS AND SYSTEMS FOR D[…] HETEROGENEITY” (Foundation Medicine, Inc., priority 2022, published 2025).

Tested on: EGFR driver alteration-positive NSCLC patients
Assay: Progression free survival (PFS) from start of 1st line Osimertinib in a real-world NSCLC patient cohort (Kaplan Meier)
Assay type: in vivo, human
Conditions: for median progression free survival (mPFS): 45 patients, 1st line Osimertinib
Text: Starting with a patient cohort of 15,035 patients, the data was filtered (for biopsy type and bait set). The data was then filtered to exclude data for patients for whom a computational tumor purity was less than or equal to 20% or for whom a computational tumor purity value was missing. The remaining patient data was divided according to whether the samples were early-stage specimens, late-stage specimens, or of ambiguous origin. For the late-stage specimens, data for patients who were first diagnosed prior to Jan. […] Finally, data was selected for N=135 1st line Osimertinib-treated, EGFR driver alteration-positive NSCLC patients for whom tumor samples were sequenced at most a year prior to start of therapy.
The group of 135 patients were then divided into three tertiles with 45 patients each. Progression free survival (PFS) from start of 1st line Osimertinib was determined as follows: • Index state was the start of 1st line therapy. • Progression date: for patients who received a subsequent line of therapy, the event date was the earliest progression event that occurred more than 14 days after the index date, or date of death, provided that the progression event or date of death occurred before the start date of the subsequent line of therapy plus 14 days. For patients without a subsequent line of therapy, the event date was the earliest progression event that occurred more than 14 days after the index date, or the date of death. • Censor date: patients with a subsequent line of therapy were censored at their last clinic note date if it occurred between the index date and the start date of the subsequent line of therapy plus 14 days. Patients for whom the last clinic note date was not available within this window were censored at their last date of confirmed structured activity (i.e., the last available visit date within the Visit Table) within this time window. Patients without a subsequent line of therapy were censored at their last clinic note date.

C=CC(=O)Nc1cc(Nc2nccc(-c3cn(C)c4ccccc34)n2)c(OC)cc1N(C)CCN(C)C [Osimertinib]
median progression free survival (mPFS) (first tertile (lowest tumor heterogeneity score)): 16.5 months | median PFS (high score group: tumor heterogeneity score >=1, 1st line Osimertinib): 10.8 months | median PFS (low score group: tumor heterogeneity score <1, 1st line Osimertinib): 16.0 months | mPFS (score category High (THS >=1), EGFR CCF category High (CCF >=0.5), N=74): 11.11 | mPFS (score category High (THS >=1), EGFR CCF category Low (CCF <0.5), N=12): 6.54 months | mPFS (score category Low (THS <1), EGFR CCF category High (CCF >=0.5), N=39): 16.01 months | median progression free survival (mPFS) (second tertile (intermediate tumor heterogeneity score)): 10.5 months | median progression free survival (mPFS) (third tertile (highest tumor heterogeneity score)): 11.9 months | Median progression free survival (mPFS) from start of 1st line Osimertinib (whole cohort, N=135 EGFR driver alteration-positive NSCLC patients): 12.7 months
